Experimental data as given in patent US11390621B2, “Chiral indole compounds and their use” (ARIAGEN, INC., priority 2019, dated 2022).

Legend:
Format in all cases: in vitro ADME
[1] = Hepatocyte intrinsic clearance assay (metabolic stability), human hepatocytes; details: male, human, cryopreserved pooled hepatocytes, Human Hepatocytes, 1 μM test compound
Excerpt: (§1) The liver is an important organ in the body for drug metabolism. This Example describes hepatocyte intrinsic clearance assays using both human and rat hepatocytes to evaluate the metabolic stability of the indole compounds disclosed herein. The parameters measured include t1/2 (half-life), CLint (intrinsic clearance), and EH (hepatic extraction ratio).
(§2) Testosterone (Lot FE111011-01) was obtained from Cerilliant (Round Rock, Tex.). 7-hydroxycoumarin (Lot 11631ED) was obtained from Sigma Aldrich (St. Louis, Mo.). Cryopreserved human hepatocytes pooled from ten donor males (X008001), cryopreserved male IRC/CD-1 mouse hepatocytes (M005052), INVITROGRO HI Medium (incubation), and INVITROGRO HT Medium (thawing) were obtained from Bioreclamation IVT (Baltimore, Md.). All solvents were obtained from commercial sources and used without further purification.
(§3) Each test compound was prepared as a 1 mM stock solution in DMSO. A 2 μM solution of test compound and positive controls were prepared in INVITROGRO HI Medium (incubation). These solutions were pre-warmed in a sterile incubator set to maintain 37° C., 5% CO2, and 98% humidity. Cryopreserved hepatocytes were prepared at a concentration of 2×10^6 living cells/mL in incubation media and pre-warmed in the incubator. The compound solutions and hepatocyte mixtures were then combined at a ratio of 1:1 (v:v). The final volume of the reaction mixture was 750 μL, containing 1 μM test compound (10 μM for 7-hydroxycoumarin) and […]. The reaction mixture was placed in the incubator on a plate shaker. After 0, 15, 30, 60, 90, and 120 minutes of incubation, 100 μL of reaction mixtures were removed from the incubation plate and mixed with 150 μL of ice-cold acetonitrile in a designated well of a 96-well crash plate. The 96-well crash plate was placed on ice for 15 min, and samples were centrifuged (3,600 RPM, 10 min, 4° C.) to precipitate protein. The supernatants were diluted 1:1 (v:v) with water containing 0.15 μM verapamil and/or 1 μM tolbutamide (internal standards for positive and negative modes, respectively) in a 96-well shallow injection plate. This plate was sealed for LC-MS analysis. All measurements were done in duplicate.
(§4) The residual compound remaining (% R) was determined from LC-MS peak areas by comparison to the zero time point. Metabolic half-life (t1/2) and intrinsic clearance (CLint) values were calculated from the slope of the plot of ln (% R) vs. time and the concentration of hepatocytes present in the incubation. Percent remaining at 60 minutes was calculated by plugging in the 60 minute value into the slope equation generated by the percent remaining time points.
(§5) In vivo hepatic clearance CLH was calculated using the well stirred liver model according to the following equation:
(§6) [formula] where QH is the total liver blood flow, fu is unbound fraction of the drug, and CL′int is defined as follows: CL′int=CLint×(10^6 cells/g of liver weight)×(g liver weight/kg of body weight). In the first approximation, used in this study, fu=1.
(§7) Hepatic extraction ratio EH was calculated using the following equation:
(§8) [formula] Corresponding physiological parameters used in calculations for all species are shown below in Table 3.

human hepatocytes = assay: as above; details: Human Hepatocytes; well stirred liver model, fu=1
Excerpt: as §1, §2, §3, §4, §5, §6, §7, §8

[2] = Hepatocyte intrinsic clearance assay (metabolic stability), rat hepatocytes; details: rat, cryopreserved hepatocytes, Rat Hepatocytes, 1 μM test compound
Excerpt: as §1, §2, §3, §4, §5, §6, §7, §8

rat hepatocytes = assay: as above; details: Rat Hepatocytes; well stirred liver model, fu=1
Excerpt: as §1, §2, §3, §4, §5, §6, §7, §8

[3] = CYP profiling: turnover in human liver microsomes, 30 min, no inhibitor; set-up: % Compound Metabolized at 30 min, No Inhibitor: concentration or dose not given beside the values; details: HLMs
Method: (§9) In order to investigate the contributions of CYP1A2 and CYP3A4 to the metabolism of the compounds of the present disclosure, human liver microsomes were incubated with the test compounds for 30 minutes in the presence of selective chemical inhibitors furafylline (1A2) and ketoconazole (3A4).

CYP1A2 = molecular target: T1, CYP1A2 (Homo sapiens, UniProt P05177); assay: CYP profiling: human liver microsomes with CYP1A2 inhibitor furafylline; set-up: % Compound Metabolized at 30 min, CYP1A2 Inhibitor: concentration or dose not given beside the values; details: HLMs
T1 construct: from tissue; host or cells: human liver microsomes
T1 sequence (P05177 1-516): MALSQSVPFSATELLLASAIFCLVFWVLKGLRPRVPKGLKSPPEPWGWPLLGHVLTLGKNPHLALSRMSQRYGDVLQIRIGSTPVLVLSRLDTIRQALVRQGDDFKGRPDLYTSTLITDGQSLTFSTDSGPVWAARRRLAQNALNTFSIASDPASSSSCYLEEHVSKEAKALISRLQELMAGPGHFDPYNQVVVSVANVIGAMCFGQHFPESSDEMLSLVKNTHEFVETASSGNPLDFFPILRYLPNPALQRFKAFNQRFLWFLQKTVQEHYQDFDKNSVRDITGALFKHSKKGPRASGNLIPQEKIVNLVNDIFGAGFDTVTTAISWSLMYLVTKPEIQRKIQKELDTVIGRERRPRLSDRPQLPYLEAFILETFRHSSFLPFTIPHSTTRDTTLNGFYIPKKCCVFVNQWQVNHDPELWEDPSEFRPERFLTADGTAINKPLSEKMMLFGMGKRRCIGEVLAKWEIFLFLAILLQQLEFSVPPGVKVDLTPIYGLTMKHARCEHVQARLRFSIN
Method: as §9

CYP3A4 = molecular target: T2, CYP3A4 (Homo sapiens, UniProt P08684); assay: CYP profiling: human liver microsomes with CYP3A4 inhibitor ketoconazole; set-up: % Compound Metabolized at 30 min, CYP3A4 Inhibitor: concentration or dose not given beside the values; details: HLMs
T2 construct: from tissue; host or cells: human liver microsomes
Method: as §9

T2 sequence (P08684 whole entry): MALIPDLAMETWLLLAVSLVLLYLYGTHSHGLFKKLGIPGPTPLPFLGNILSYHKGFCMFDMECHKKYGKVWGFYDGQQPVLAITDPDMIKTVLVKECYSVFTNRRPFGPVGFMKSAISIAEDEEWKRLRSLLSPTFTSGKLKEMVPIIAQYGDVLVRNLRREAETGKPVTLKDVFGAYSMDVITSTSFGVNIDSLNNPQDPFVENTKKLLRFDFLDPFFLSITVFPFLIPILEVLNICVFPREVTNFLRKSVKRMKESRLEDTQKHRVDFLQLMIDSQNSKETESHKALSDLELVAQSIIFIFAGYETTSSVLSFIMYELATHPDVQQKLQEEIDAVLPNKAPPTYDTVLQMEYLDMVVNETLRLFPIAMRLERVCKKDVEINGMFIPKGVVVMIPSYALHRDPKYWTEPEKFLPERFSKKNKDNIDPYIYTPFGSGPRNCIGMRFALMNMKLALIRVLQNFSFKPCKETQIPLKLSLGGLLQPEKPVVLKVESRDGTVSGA

half-life at 1 μM [1]: 46.1 h | hepatocyte CLint at 1 μM [1]: 0.251 µL/min/1e6 cells | EH (hepatic extraction ratio) (human hepatocytes): 1.9% | half-life at 1 μM [2]: 1.3 h | hepatocyte CLint at 1 μM [2]: 8.73 µL/min/1e6 cells | EH (hepatic extraction ratio) (rat hepatocytes): 36.9% | % Compound Metabolized at 30 min, No Inhibitor [3]: 2% | % Compound Metabolized at 30 min, CYP1A2 Inhibitor (CYP1A2): 0% | % Inhibition Relative to Negative Control, 1A2 (CYP1A2; 30 min): 100% | % Compound Metabolized at 30 min, CYP3A4 Inhibitor (CYP3A4): 8% | % Inhibition Relative to Negative Control, 3A4 (CYP3A4; 30 min): None
Compound: NC(c1csc(C(=O)c2c[nH]c3ccccc23)n1)C(F)(F)F (centres unmarked) [ARI-100]
